Data reported in ChEMBL document CHEMBL1128686, “Technetium-99m-labeled HOE 140: a potential bradykinin B2 receptor imaging agent” (J Med Chem, 1995).
pIC50: −log10 of the molar value.

Key:
Rattus norvegicus [1] = assay: Distribution in content of colon of healthy rat 15 min after iv injection into the femoral vein; format: ADME, organism-based; details: in vivo, 0.25 h
Rattus norvegicus [2] = assay: Distribution in blood of healthy rat 15 min after iv injection into the femoral vein; format: ADME, organism-based; details: in vivo, 0.25 h
Rattus norvegicus [3] = assay: Distribution in stomach of healthy rat 15 min after iv injection into the femoral vein; format: ADME, organism-based; details: in vivo, 0.25 h
Rattus norvegicus [4] = assay: Distribution in content of small intestine of healthy rat 5 min after iv injection into the femoral vein; format: ADME, organism-based; details: in vivo
Rattus norvegicus [5] = assay: Distribution in lung of healthy rat 24 hr after iv injection into the femoral vein; format: ADME, organism-based; details: in vivo
Rattus norvegicus [6] = assay: Distribution in liver of healthy rat 5 min after iv injection into the femoral vein; format: ADME, organism-based; details: in vivo
Rattus norvegicus [7] = assay: Distribution in kidney of healthy rat 24 hr after iv injection into the femoral vein; format: ADME, organism-based; details: in vivo
Rattus norvegicus [8] = assay: Distribution in small intestine of healthy rat 24 hr after iv injection into the femoral vein; format: ADME, organism-based; details: in vivo
Rattus norvegicus [9] = assay: Distribution in liver of healthy rat 15 min after iv injection into the femoral vein; format: ADME, organism-based; details: in vivo, 0.25 h
Rattus norvegicus [10] = assay: Distribution in lung of healthy rat 15 min after iv injection into the femoral vein; format: ADME, organism-based; details: in vivo, 0.25 h
Rattus norvegicus [11] = assay: Distribution in colon of healthy rat 15 min after iv injection into the femoral vein; format: ADME, organism-based; details: in vivo, 0.25 h
Rattus norvegicus [12] = assay: Distribution in blood of healthy rat 4 hr after iv injection into the femoral vein; format: ADME, organism-based; details: in vivo
Rattus norvegicus [13] = assay: Distribution in blood of healthy rat 5 min after iv injection into the femoral vein; format: ADME, organism-based; details: in vivo
Rattus norvegicus [14] = assay: Distribution in content of small intestine of healthy rat 30 min after iv injection into the femoral vein; format: ADME, organism-based; details: in vivo, 0.5 h
[15] = Distribution in feces of healthy rat 24 hr after iv injection into the femoral vein; format: ADME, organism-based; details: faeces, read-out: Organ distribution
Rattus norvegicus [16] = assay: Distribution in bladder and urine of healthy rat 5 min after iv injection into the femoral vein; format: ADME, organism-based, Urinary bladder/Urine; details: in vivo
Rattus norvegicus [17] = assay: Distribution in kidney of healthy rat 15 min after iv injection into the femoral vein; format: ADME, organism-based; details: in vivo, 0.25 h
Rattus norvegicus [18] = assay: Distribution in liver of healthy rat 4 hr after iv injection into the femoral vein; format: ADME, organism-based; details: in vivo
Rattus norvegicus [19] = assay: Distribution in liver of healthy rat 24 hr after iv injection into the femoral vein; format: ADME, organism-based; details: in vivo
Rattus norvegicus [20] = assay: Distribution in kidney of healthy rat 30 min after iv injection into the femoral vein; format: ADME, organism-based; details: in vivo, 0.5 h
Rattus norvegicus [21] = assay: Distribution in content of small intestine of healthy rat 4 hr after iv injection into the femoral vein; format: ADME, organism-based; details: in vivo
Rattus norvegicus [22] = assay: Distribution in blood of healthy rat 30 min after iv injection into the femoral vein; format: ADME, organism-based; details: in vivo, 0.5 h
Rattus norvegicus [23] = assay: Distribution in lung of healthy rat 4 hr after iv injection into the femoral vein; format: ADME, organism-based; details: in vivo
Rattus norvegicus [24] = assay: Distribution in lung of healthy rat 5 min after iv injection into the femoral vein; format: ADME, organism-based; details: in vivo
Rattus norvegicus [25] = assay: Distribution in content of colon of healthy rat 30 min after iv injection into the femoral vein; format: ADME, organism-based; details: in vivo, 0.5 h
Rattus norvegicus [26] = assay: Distribution in colon of healthy rat 30 min after iv injection into the femoral vein; format: ADME, organism-based; details: in vivo, 0.5 h
Rattus norvegicus [27] = assay: Distribution in colon of healthy rat 5 min after iv injection into the femoral vein; format: ADME, organism-based; details: in vivo
Rattus norvegicus [28] = assay: Distribution in bladder and urine of healthy rat 30 min after iv injection into the femoral vein; format: ADME, organism-based, Urinary bladder/Urine; details: in vivo, 0.5 h
B2 bradykinin receptor [29] = molecular target: T1, B2 bradykinin receptor (Cavia porcellus, UniProt O70526); assay: In vitro antagonistic activity for Bradykinin receptor B2 by guinea pig pulmonary artery assay.; format: functional
T1 sequence (O70526 whole entry): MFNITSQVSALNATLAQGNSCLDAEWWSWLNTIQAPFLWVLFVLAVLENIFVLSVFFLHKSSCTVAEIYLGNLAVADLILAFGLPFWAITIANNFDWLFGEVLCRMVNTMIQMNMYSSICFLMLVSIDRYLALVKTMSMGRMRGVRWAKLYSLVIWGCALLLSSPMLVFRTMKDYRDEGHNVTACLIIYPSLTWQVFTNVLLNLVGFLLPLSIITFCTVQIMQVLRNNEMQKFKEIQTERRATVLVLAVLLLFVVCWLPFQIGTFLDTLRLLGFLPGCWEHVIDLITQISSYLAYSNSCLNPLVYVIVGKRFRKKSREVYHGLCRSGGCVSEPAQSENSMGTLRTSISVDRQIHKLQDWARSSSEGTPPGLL

Rattus norvegicus [30] = assay: Distribution in bladder and urine of healthy rat 4 hr after iv injection into the femoral vein; format: ADME, organism-based, Urinary bladder/Urine; details: in vivo
Rattus norvegicus [31] = assay: Distribution in content of colon of healthy rat 5 min after iv injection into the femoral vein; format: ADME, organism-based; details: in vivo
Rattus norvegicus [32] = assay: Distribution in content of colon of healthy rat 24 hr after iv injection into the femoral vein; format: ADME, organism-based; details: in vivo
Rattus norvegicus [33] = assay: Distribution in small intestine of healthy rat 15 min after iv injection into the femoral vein; format: ADME, organism-based; details: in vivo, 0.25 h
Rattus norvegicus [34] = assay: Distribution in thyroid gland of healthy rat 15 min after iv injection into the femoral vein; format: ADME, organism-based; details: in vivo, 0.25 h
Rattus norvegicus [35] = assay: Distribution in content of small intestine of healthy rat 24 hr after iv injection into the femoral vein; format: ADME, organism-based; details: in vivo
Rattus norvegicus [36] = assay: Distribution in spleen of healthy rat 24 hr after iv injection into the femoral vein; format: ADME, organism-based; details: in vivo
Rattus norvegicus [37] = assay: Distribution in spleen of healthy rat 5 min after iv injection into the femoral vein; format: ADME, organism-based; details: in vivo
Rattus norvegicus [38] = assay: Distribution in stomach of healthy rat 5 min after iv injection into the femoral vein; format: ADME, organism-based; details: in vivo
Rattus norvegicus [39] = assay: Distribution in thyroid gland of healthy rat 5 min after iv injection into the femoral vein; format: ADME, organism-based; details: in vivo
Rattus norvegicus [40] = assay: Distribution in thyroid gland of healthy rat 24 hr after iv injection into the femoral vein; format: ADME, organism-based; details: in vivo
B2 bradykinin receptor [41] = molecular target: T1, B2 bradykinin receptor; assay: In vitro antagonistic activity for Bradykinin receptor B2 by guinea pig ileal membrane receptor assay.; format: functional
Rattus norvegicus [42] = assay: Distribution in stomach of healthy rat 4 hr after iv injection into the femoral vein; format: ADME, organism-based; details: in vivo
Rattus norvegicus [43] = assay: Distribution in spleen of healthy rat 4 hr after iv injection into the femoral vein; format: ADME, organism-based; details: in vivo
Rattus norvegicus [44] = assay: Distribution in colon of healthy rat 4 hr after iv injection into the femoral vein; format: ADME, organism-based; details: in vivo
Rattus norvegicus [45] = assay: Distribution in kidney of healthy rat 5 min after iv injection into the femoral vein; format: ADME, organism-based; details: in vivo
Rattus norvegicus [46] = assay: Distribution in bladder and urine of healthy rat 15 min after iv injection into the femoral vein; format: ADME, organism-based, Urinary bladder/Urine; details: in vivo, 0.25 h
Rattus norvegicus [47] = assay: Distribution in spleen of healthy rat 15 min after iv injection into the femoral vein; format: ADME, organism-based; details: in vivo, 0.25 h
Rattus norvegicus [48] = assay: Distribution in thyroid gland of healthy rat 4 hr after iv injection into the femoral vein; format: ADME, organism-based; details: in vivo
Rattus norvegicus [49] = assay: Distribution in colon of healthy rat 24 hr after iv injection into the femoral vein; format: ADME, organism-based; details: in vivo
Rattus norvegicus [50] = assay: Distribution in small intestine of healthy rat 30 min after iv injection into the femoral vein; format: ADME, organism-based; details: in vivo, 0.5 h
Rattus norvegicus [51] = assay: Distribution in small intestine of healthy rat 5 min after iv injection into the femoral vein; format: ADME, organism-based; details: in vivo
Rattus norvegicus [52] = assay: Distribution in spleen of healthy rat 30 min after iv injection into the femoral vein; format: ADME, organism-based; details: in vivo, 0.5 h
Rattus norvegicus [53] = assay: Distribution in small intestine of healthy rat 4 hr after iv injection into the femoral vein; format: ADME, organism-based; details: in vivo
Rattus norvegicus [54] = assay: Distribution in liver of healthy rat 30 min after iv injection into the femoral vein; format: ADME, organism-based; details: in vivo, 0.5 h
Rattus norvegicus [55] = assay: Distribution in stomach of healthy rat 24 hr after iv injection into the femoral vein; format: ADME, organism-based; details: in vivo
Rattus norvegicus [56] = assay: Distribution in content of colon of healthy rat 4 hr after iv injection into the femoral vein; format: ADME, organism-based; details: in vivo
Rattus norvegicus [57] = assay: Distribution in blood of healthy rat 24 hr after iv injection into the femoral vein; format: ADME, organism-based; details: in vivo
Rattus norvegicus [58] = assay: Distribution in content of small intestine of healthy rat 15 min after iv injection into the femoral vein; format: ADME, organism-based; details: in vivo, 0.25 h
Rattus norvegicus [59] = assay: Distribution in bladder and urine of healthy rat 24 hr after iv injection into the femoral vein; format: ADME, organism-based, Urinary bladder/Urine; details: in vivo
Rattus norvegicus [60] = assay: Distribution in stomach of healthy rat 30 min after iv injection into the femoral vein; format: ADME, organism-based; details: in vivo, 0.5 h
Rattus norvegicus [61] = assay: Distribution in thyroid gland of healthy rat 30 min after iv injection into the femoral vein; format: ADME, organism-based; details: in vivo, 0.5 h
Rattus norvegicus [62] = assay: Distribution in kidney of healthy rat 4 hr after iv injection into the femoral vein; format: ADME, organism-based; details: in vivo
Rattus norvegicus [63] = assay: Distribution in lung of healthy rat 30 min after iv injection into the femoral vein; format: ADME, organism-based; details: in vivo, 0.5 h

Organ distribution (Rattus norvegicus [1]): 0.2%
Organ distribution (Rattus norvegicus [2]): 8.62%
Organ distribution (Rattus norvegicus [3]): 1.13%
Organ distribution (Rattus norvegicus [4]): 1.83%
Organ distribution (Rattus norvegicus [5]): 0.04%
Organ distribution (Rattus norvegicus [6]): 5.25%
Organ distribution (Rattus norvegicus [7]): 3.07%
Organ distribution (Rattus norvegicus [8]): 0.19%
Organ distribution (Rattus norvegicus [9]): 4.48%
Organ distribution (Rattus norvegicus [10]): 0.82%
Organ distribution (Rattus norvegicus [11]): 0.65%
Organ distribution (Rattus norvegicus [12]): 0.5%
Organ distribution (Rattus norvegicus [13]): 13.2%
Organ distribution (Rattus norvegicus [14]): 4.84%
dose excreted at 24 h [15]: 8.4%
Organ distribution (Rattus norvegicus [16]): 3.83%
Organ distribution (Rattus norvegicus [17]): 7%
Organ distribution (Rattus norvegicus [18]): 5.03%
Organ distribution (Rattus norvegicus [19]): 2.72%
Organ distribution (Rattus norvegicus [20]): 8.86%
Organ distribution (Rattus norvegicus [21]): 1.85%
Organ distribution (Rattus norvegicus [22]): 5.5%
Organ distribution (Rattus norvegicus [23]): 0.1%
Organ distribution (Rattus norvegicus [24]): 1.2%
Organ distribution (Rattus norvegicus [25]): 0.17%
Organ distribution (Rattus norvegicus [26]): 0.48%
Organ distribution (Rattus norvegicus [27]): 1%
Organ distribution (Rattus norvegicus [28]): 33%
pIC50 (B2 bradykinin receptor [29]): 7.85
Organ distribution (Rattus norvegicus [30]): 74.9%
Organ distribution (Rattus norvegicus [31]): 0.22%
Organ distribution (Rattus norvegicus [32]): 0.56%
Organ distribution (Rattus norvegicus [33]): 3.74%
Organ distribution (Rattus norvegicus [34]): 0.11%
Organ distribution (Rattus norvegicus [35]): 0.06%
Organ distribution (Rattus norvegicus [36]): 0.08%
Organ distribution (Rattus norvegicus [37]): 0.27%
Organ distribution (Rattus norvegicus [38]): 1.55%
Organ distribution (Rattus norvegicus [39]): 0.12%
Organ distribution (Rattus norvegicus [40]): 0.01%
pIC50 (B2 bradykinin receptor [41]): 8.10
Organ distribution (Rattus norvegicus [42]): 0.46%
Organ distribution (Rattus norvegicus [43]): 0.12%
Organ distribution (Rattus norvegicus [44]): 0.44%
Organ distribution (Rattus norvegicus [45]): 8.46%
Organ distribution (Rattus norvegicus [46]): 20.3%
Organ distribution (Rattus norvegicus [47]): 0.19%
Organ distribution (Rattus norvegicus [48]): 0.02%
Organ distribution (Rattus norvegicus [49]): 0.09%
Organ distribution (Rattus norvegicus [50]): 1.67%
Organ distribution (Rattus norvegicus [51]): 2.92%
Organ distribution (Rattus norvegicus [52]): 0.19%
Organ distribution (Rattus norvegicus [53]): 0.71%
Organ distribution (Rattus norvegicus [54]): 4.31%
Organ distribution (Rattus norvegicus [55]): 0.06%
Organ distribution (Rattus norvegicus [56]): 6.96%
Organ distribution (Rattus norvegicus [57]): 0.5%
Organ distribution (Rattus norvegicus [58]): 2.79%
Organ distribution (Rattus norvegicus [59]): 79.9%
Organ distribution (Rattus norvegicus [60]): 0.91%
Organ distribution (Rattus norvegicus [61]): 0.11%
Organ distribution (Rattus norvegicus [62]): 4.33%
Organ distribution (Rattus norvegicus [63]): 0.55%
Compound: N=C(N)NCCC[C@H](NC(=O)[C@@H]1C[C@@H]2CCCC[C@@H]2N1C(=O)[C@H]1Cc2ccccc2CN1C(=O)[C@H](CO)NC(=O)[C@H](Cc1cccs1)NC(=O)CNC(=O)[C@@H]1C[C@@H](O)CN1C(=O)[C@@H]1CCCN1C(=O)[C@H](CCCNC(=N)N)NC(=O)[C@@H](CCCNC(=N)N)NC(=O)c1ccc(CN2CCCNCCNCCCNCC2)cc1)C(=O)O
